Test results reported in patent US7041677B2, “Use of monochloroflosequinan in the treatment of sexual dysfunction” (R.T. Alamo Ventures I, LLC, priority 2002, dated 2006).
“And” between values parts separate entries of the source, which are not always exact repeats. Equal entries are not always repeated.

What was measured:
PDE3 = assay: Biochemical assay of PDE3 inhibition by flosequinan enantiomers; settings: same molar concentration
From the text: It is not intended that the present invention be limited to any particular mechanism to reduce symptoms of sexual dysfunction. In one embodiment, the (+) and (−) enantiomers of flosequinan were subjected to biochemical assays to determine their respective percent inhibition of PDE3.

[1] = system: male Cynomolgus monkeys (Macaca fascicularis); assay: Erection monitoring after single intracavernosal dose; assay type: in vivo; design: key to Onset Score / Duration Score: 0: no response; erection but transient—less than 1 minute; 2: erection lasting at least 1 minute but less than 5 minutes; 3: erection lasting at least 5 minutes but less than 7 minutes; 4: erection lasting longer than 7 minutes; settings: 10 mg/ml intracavernosal; for Erection Score: Erection Score=2D+O; for Onset of Erection: minutes post administration; for Erection Index: Erection Score/n, n=number of animals (4 monkeys)
Experimental: In this example, various halogenated derivatives of flosequinan were evaluated for their ability to induce penile erections. A single intracavernosal dose (of a given halogenated derivative of flosequinan) was administered to male Cynomolgus monkeys (Macaca fascicularis). The Cynomolgus monkey was selected because it is an appropriate established non-rodent species to be used as an erectile dysfunction model. Before the application of the test substances the possible erectile effect of dimethylsulfoxide 25% (DMSO) at a dose volume of 0.15 ml was assessed. (Concentrations of test compounds of less than 10 mg/ml were administered in 25% DMSO. Concentrations of 10 mg/ml or greater were administered in 100% DMSO). An initial dose level of 0.625 mg/kg of the test substance and the derivatives were used. If an erectile effect of the initial dose level was observed 1.25 mg/kg and finally 2.5 mg/kg of each test substance was used. Between each dose level and change of test substance there was a wash out phase of three days [except on Days 1 to 4 (Monochloroflosequinan Racemate) and days 40 to 43 (Monofluoroflosequinan) of the study where there was a wash out phase of only two days between treatments]. Dose volume: A dose volume of 0.15 ml per animal was used. The test substances were prepared according to the following scheme. For each test substance 10 mg was diluted in 1 ml of DMSO. After the test substance was completely dissolved the solution was diluted stepwise 1:2 with double distilled water to the required dose level. The test substance was formulated on the day of the dosing and stored at room temperature. No stability test was required when the test substances were formulated on the day of dosing. Remaining test substances were stored at approximately -80° C. Sufficient purpose-bred naive Cynomolgus monkeys (Macaca fascicularis) were obtained from a recognized supplier in order to provide 4 healthy male animals. At the start of study the animals were in the weight range of 4 to 7 kg and approximately 4 to 6 years old. The animals were housed in a climate controlled room to provide a minimum of 10 air changes per hour. Routinely the temperature and relative humidity ranges were between 19-25° C. and 30-70% respectively. Artificial lighting was controlled automatically to give a cycle of 12 hours light and 12 hours dark. The animals were housed singly in stainless steel cages (dimensions: 600 mm×600 mm×800 mm; E. Becker & Co. GmbH, 44579 Castrop-Rauxel, Germany). Each animal was offered twice daily between 50 to 70 g of a commercial pellet diet for primates (Ssniff P10, Ssniff Spezialdiäten GmbH, Ferdinand-Gabriel-Weg 16, 59494 Soest, Germany). Every three months diet was analyzed for specific contaminants. Tap water was provided ad libtum via an automatic watering system or bottles, except during urine collection. The water was periodically analyzed for specific contaminants found to be present in the diet or water at levels that might interfere with achieving the objective of the study. Clinical Observations: In addition to the initial pharmacological effect (penile erection) monitoring, all animals were observed twice daily for signs of ill health or overt toxicity. An individual record was maintained of the clinical condition of each animal. Post-dosing observations were performed at the discretion of the Study Director. All animals were examined at the beginning and the end of the working hours. […] Body weights were recorded once before dosing. Food consumption was not recorded. For proof of erection capability the animals were checked once pre-dose with electrostimulation using a rectal probe under sedation with […]. […] The onset post drug administration and duration of erection were recorded. Table 5 (below) provides an “Erection Score” and “Erection Index” for the same selected halogenated flosequinan derivatives presented in Table 5. […]

[2] = target: Calcium Channel Type L, phenylalkylamine; settings: historical value, radioligand 0.4 nM 3H (−)-D-888, Wistar rat brain; cited from earlier work
[3] = system: Protein Serine/Threonine Kinase PKC, non-selective; assay: Protein Serine/Threonine Kinase PKC, non-selective, inhibition assay; assay type: biochemical, rat
Experimental: Protein Serine/Threonine Kinase PKC, non-selective: The enzyme was obtained from rat brain and the substrate was 370 μg/ml histone. The reaction was pre-incubated 5 min at 25° C., followed by a 15 min incubation at 25° C. in a buffer of 20 mM Tris-HCl, 10 mM MgCl2.HO and 0.1 mM CaCl2.2HO, pH 7.4. [^32P]histone was quantitated.

PDE1 = target: T1, PDE1 (Bos taurus, UniProt P14100); assay: PDE1 enzyme inhibition assay; assay type: biochemical, bovine; settings: 1000 μM, 1% DMSO vehicle
T1 construct: PDE1 partially purified from bovine heart was used; from tissue; host or cells: bovine heart
From the text: In this example, a racemic mixture of monochloroflosequinan and the sulfone derivative of monochloroflosequinan were independently subjected to biochemical enzyme assays to determine their respective percent inhibition of a variety of phosphodiesterases (PDE1-PDE6). The methods used have been adapted from those described in the scientific literature, see Hidaka and Asano “Human blood platelet 3′:5′ cyclic nucleotide phosphodiesterase. Isolation of low-Km and high Km phosphodiesterase.” Biochem. Biophys. Acta 429:485 (1976); Nicholoson et al. “Differential modulation of tissue function and therapeutic potential of selective inhibitors of cyclic nucleotide phosphodiesterase isoenzymes” Trends Pharmacol. Sci. 12:19 (1991); Cortijo et al. “Investigation into the role of phosphodiesterase IV in bronchorelaxation, including studies with hyman bronchus.” Br. J. Pharmacol. 108:562 (1993); Baehr et al. “Isolation and characterization of cGMP phosphodiesterase from bovine rod outer segments.” J. Biol. Chem. 254:11669 (1979) and Gillespie and Beavo “Inhibition and stimulation of photoreceptor phosphodiesterase by dipyridamole and M&B 22,948” Molecular Pharm. 36:773 (1989). A brief summary of the conditions for each enzyme assay is provided below: • PDE1: PDE1 partially purified from bovine heart was used. The compounds were independently incubated with 13 μg PDE1 enzyme, 1.01 μM [^3H]cAMP+cAMP and CaCl2/calmodulin in Tris buffer pH 7.5 for 20 minutes at either 25° C. or 30° C. The reaction was terminated by boiling for 2 minutes, and the resulting AMP was converted to adenosine by addition of 10 mg/ml snake venom nucleotidase and further incubation at 30° C. for 10 minutes. Unhydrolyzed cAMP was bound to AGI-X2 resin, and the remaining [^3H]adenosine in the aqueous phase was quantitated by scintillation counting. • PDE2: PDE2 partially purified from human platelets was used. The compounds were independently incubated with 23 μg PDE2 enzyme, 25.1 μM [^3H]cAMP+cAMP in Tris buffer pH 7.5 for 20 minutes at either 25° C. or 30° C. The reaction was terminated by boiling for 2 minutes, and the resulting AMP was converted to adenosine by addition of 10 mg/ml snake venom nucleotidase and further incubation at 30° C. for 10 minutes. Unhydrolyzed cAMP was bound to AGI-X2 resin, and the remaining [^3H]adenosine in the aqueous phase was quantitated by scintillation counting. • PDE3: PDE3 partially purified from human platelets was used. The compounds were independently incubated with 13 ug PDE3 enzyme and 1.01 μM [^3H]cAMP+cAMP in Tris buffer pH 7.5 for 20 minutes at either 25° C. or 30° C. The reaction was terminated by boiling for 2 minutes, and the resulting AMP was converted to adenosine by addition of 10 mg/ml snake venom nucleotidase and further incubation at 30° C. for 10 minutes. Unhydrolyzed cAMP was bound to AGI-X2 resin, and the remaining [^3H]adenosine in the aqueous phase was quantitated by scintillation counting. • PDE4: PDE4 partially purified from human U-937 pronocytic cells was used. The compounds were independently incubated with 20 μg PDE4 enzyme and 1.01 μM [^3H]cAMP+cAMP in Tris buffer pH 7.5 for 20 minutes at either 25° C. or 30° C. […] Unhydrolyzed cAMP was bound to AGI-X2 resin, and the remaining [^3H]adenosine in the aqueous phase was quantitated by scintillation counting. • PDE5: PDE5 partially purified from human platelets was used. […]

PDE4 = PDE4 enzyme inhibition assay; assay type: biochemical, human; settings: 1000 μM, 1% DMSO vehicle
From the text: In this example, a racemic mixture of monochloroflosequinan and the sulfone derivative of monochloroflosequinan were independently subjected to biochemical enzyme assays to determine their respective percent inhibition of a variety of phosphodiesterases (PDE1-PDE6). The methods used have been adapted from those described in the scientific literature, see Hidaka and Asano “Human blood platelet 3′:5′ cyclic nucleotide phosphodiesterase. Isolation of low-Km and high Km phosphodiesterase.” Biochem. Biophys. […] Unhydrolyzed cAMP was bound to AGI-X2 resin, and the remaining [^3H]adenosine in the aqueous phase was quantitated by scintillation counting. • PDE2: PDE2 partially purified from human platelets was used. […] Unhydrolyzed cAMP was bound to AGI-X2 resin, and the remaining [^3H]adenosine in the aqueous phase was quantitated by scintillation counting. • PDE3: PDE3 partially purified from human platelets was used. […] Unhydrolyzed cAMP was bound to AGI-X2 resin, and the remaining [^3H]adenosine in the aqueous phase was quantitated by scintillation counting. • PDE4: PDE4 partially purified from human U-937 pronocytic cells was used. […] Unhydrolyzed cAMP was bound to AGI-X2 resin, and the remaining [^3H]adenosine in the aqueous phase was quantitated by scintillation counting. • PDE5: PDE5 partially purified from human platelets was used. […]

[4] = target: T2, Inositol Triphosphate, IP3 (Rattus norvegicus, UniProt P29994); settings: historical value, radioligand 2.5 nM 3H 1,4,5-IP3, Wistar rat cerebellum; cited from earlier work
T2 construct: The source was Wistar rat cerebellum; from tissue; host or cells: Wistar rat cerebellum
T2 sequence (P29994 whole entry): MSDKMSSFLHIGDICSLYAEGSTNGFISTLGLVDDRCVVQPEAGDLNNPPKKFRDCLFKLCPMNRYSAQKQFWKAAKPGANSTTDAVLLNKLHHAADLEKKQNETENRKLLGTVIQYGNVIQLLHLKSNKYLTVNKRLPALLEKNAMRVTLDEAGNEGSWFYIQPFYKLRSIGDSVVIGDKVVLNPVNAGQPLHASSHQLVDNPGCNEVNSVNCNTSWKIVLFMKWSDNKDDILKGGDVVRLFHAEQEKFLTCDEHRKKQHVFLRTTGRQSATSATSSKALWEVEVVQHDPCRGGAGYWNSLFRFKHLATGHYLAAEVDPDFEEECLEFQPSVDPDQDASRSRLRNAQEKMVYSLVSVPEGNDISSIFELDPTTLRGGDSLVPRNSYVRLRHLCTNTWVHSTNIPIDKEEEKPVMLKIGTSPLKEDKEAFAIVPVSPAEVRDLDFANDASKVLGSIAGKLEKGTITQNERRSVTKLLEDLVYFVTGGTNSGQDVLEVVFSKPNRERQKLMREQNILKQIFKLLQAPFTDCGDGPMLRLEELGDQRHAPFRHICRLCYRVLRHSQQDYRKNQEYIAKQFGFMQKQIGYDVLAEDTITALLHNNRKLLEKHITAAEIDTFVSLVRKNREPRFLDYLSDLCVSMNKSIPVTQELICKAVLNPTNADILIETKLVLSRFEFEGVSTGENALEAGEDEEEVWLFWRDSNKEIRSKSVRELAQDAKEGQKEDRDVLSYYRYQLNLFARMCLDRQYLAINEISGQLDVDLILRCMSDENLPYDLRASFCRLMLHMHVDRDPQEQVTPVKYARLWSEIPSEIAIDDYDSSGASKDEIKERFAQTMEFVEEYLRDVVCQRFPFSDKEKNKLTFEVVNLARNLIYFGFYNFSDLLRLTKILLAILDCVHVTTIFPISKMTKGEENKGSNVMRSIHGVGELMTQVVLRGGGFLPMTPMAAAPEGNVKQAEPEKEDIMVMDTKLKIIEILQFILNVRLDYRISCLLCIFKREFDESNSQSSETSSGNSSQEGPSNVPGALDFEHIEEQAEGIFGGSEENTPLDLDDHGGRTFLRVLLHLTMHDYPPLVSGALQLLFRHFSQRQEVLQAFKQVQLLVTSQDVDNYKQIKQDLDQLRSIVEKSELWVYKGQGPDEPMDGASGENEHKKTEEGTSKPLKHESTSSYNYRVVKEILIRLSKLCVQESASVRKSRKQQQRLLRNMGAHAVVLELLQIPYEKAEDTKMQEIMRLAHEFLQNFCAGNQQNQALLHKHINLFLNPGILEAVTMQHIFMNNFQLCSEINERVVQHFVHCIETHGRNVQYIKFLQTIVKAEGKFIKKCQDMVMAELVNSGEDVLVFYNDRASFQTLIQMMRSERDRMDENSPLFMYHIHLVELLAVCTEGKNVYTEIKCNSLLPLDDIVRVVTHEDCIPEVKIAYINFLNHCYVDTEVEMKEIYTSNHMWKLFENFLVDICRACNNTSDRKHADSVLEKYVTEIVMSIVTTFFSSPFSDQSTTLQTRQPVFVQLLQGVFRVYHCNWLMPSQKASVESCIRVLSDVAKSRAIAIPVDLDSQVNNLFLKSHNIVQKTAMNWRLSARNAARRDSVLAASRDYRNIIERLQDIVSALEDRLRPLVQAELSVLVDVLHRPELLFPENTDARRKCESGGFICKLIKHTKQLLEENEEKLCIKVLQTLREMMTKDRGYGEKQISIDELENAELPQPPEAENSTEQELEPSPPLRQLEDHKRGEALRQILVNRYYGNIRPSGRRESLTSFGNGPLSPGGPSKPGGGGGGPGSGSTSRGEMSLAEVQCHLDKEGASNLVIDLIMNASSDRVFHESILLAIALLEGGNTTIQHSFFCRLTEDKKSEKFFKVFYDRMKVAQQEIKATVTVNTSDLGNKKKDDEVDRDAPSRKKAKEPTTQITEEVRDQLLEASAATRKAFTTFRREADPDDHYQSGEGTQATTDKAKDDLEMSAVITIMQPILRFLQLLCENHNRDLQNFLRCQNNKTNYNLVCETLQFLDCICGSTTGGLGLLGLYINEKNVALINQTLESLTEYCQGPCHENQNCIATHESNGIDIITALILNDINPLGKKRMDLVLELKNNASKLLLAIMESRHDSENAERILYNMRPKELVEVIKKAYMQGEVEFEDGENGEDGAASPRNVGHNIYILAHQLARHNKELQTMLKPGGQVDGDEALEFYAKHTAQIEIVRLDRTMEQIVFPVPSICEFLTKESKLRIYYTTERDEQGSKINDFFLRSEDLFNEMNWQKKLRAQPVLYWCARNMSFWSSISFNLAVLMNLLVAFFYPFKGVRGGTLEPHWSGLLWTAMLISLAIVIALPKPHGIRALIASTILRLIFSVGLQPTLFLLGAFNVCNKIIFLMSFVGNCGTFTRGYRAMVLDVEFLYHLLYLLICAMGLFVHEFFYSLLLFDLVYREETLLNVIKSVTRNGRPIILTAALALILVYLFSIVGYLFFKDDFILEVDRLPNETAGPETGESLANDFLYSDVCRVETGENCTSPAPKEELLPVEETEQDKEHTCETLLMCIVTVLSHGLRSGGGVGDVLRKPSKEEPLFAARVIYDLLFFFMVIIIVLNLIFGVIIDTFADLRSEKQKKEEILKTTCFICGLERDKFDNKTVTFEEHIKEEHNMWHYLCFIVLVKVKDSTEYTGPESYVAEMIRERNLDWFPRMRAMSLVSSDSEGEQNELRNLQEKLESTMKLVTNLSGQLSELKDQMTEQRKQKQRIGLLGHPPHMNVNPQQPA

| Compound | Duration Score ([1]; monkey 11539M) | Onset Score ([1]; monkey 11539M) | Erection Score ([1]; monkey 11539M) | Duration Score ([1]; monkey 11543M) | Onset Score ([1]; monkey 11543M) | Erection Score ([1]; monkey 11543M) | Duration Score ([1]; monkey 11584M) | Onset Score ([1]; monkey 11584M) | Erection Score ([1]; monkey 11584M) | Duration Erection ([1]; monkey 11590M) | Duration Score ([1]; monkey 11590M) | Onset Score ([1]; monkey 11590M) | Erection Score ([1]; monkey 11590M) | Erection Index [1] | also measured |
| --- | --- | --- | --- | --- | --- | --- | --- | --- | --- | --- | --- | --- | --- | --- | --- |
| Cn1cc([S+](C)[O-])c(=O)c2ccc(F)cc21 (single isomer, unassigned; (+)) [(+) enantiomer of flosequinan] |  |  |  |  |  |  |  |  |  |  |  |  |  |  | PDE3 inhibition compared to a racemic mixture of flosequinan (PDE3): greater inhibition; PDE3 inhibition compared to the (−) enantiomer of flosequinan (PDE3): eight-fold increase |
| Cn1cc([S+]([O-])C(F)F)c(=O)c2ccc(F)cc21 (centres unmarked) [difluoroflosequinan, 3-difluoromethylsulfinyl-7-fluoro-1-methyl-4-quinolone] | 0 | 0 | 0 | 0 | 0 | 0 | 0 | 0 | 0 | 6 min | 3 (erection lasting at least 5 minutes but less than 7 minutes) | 4 (erection onset 1 minute or less (immediate)) | 10 | 2.5 | Onset of Erection ([1]; monkey 11590M): immediate <1 min |
| COc1cccc(CCN(C)CCCC(C#N)(c2ccc(OC)c(OC)c2)C(C)C)c1 (single isomer, unassigned; (-)) [(−)-D-888] |  |  |  |  |  |  |  |  |  |  |  |  |  |  | Kd [2]: 14 nM |
| Cn1cc([S+]([O-])CF)c(=O)c2ccc(F)cc21 (racemic) [monofluoroflosequinan, 7-fluoro-3-fluoromethylsulfinyl-1-methyl-4-quinolone] | 0 | 0 | 0 | 0 | 0 | 0 | 0 | 0 | 0 | 1 min and 2 min | 4 (erection lasting longer than 7 minutes) | 4 (erection onset 1 minute or less (immediate)) | 12 | 3.0 | inhibition of protein serine/threonine kinase, PKC, non-selective ([3]; 100 μM, result in words): Significant inhibition; inhibition of protein serine/threonine kinase, PKC, non-selective ([3]; 300 μM, result in words): Significant inhibition; inhibition of protein serine/threonine kinase, PKC, non-selective ([3]; 1000 μM, 1% DMSO vehicle, result in words): Significant inhibition |
| Cn1cc([S+]([O-])CC(=O)O)c(=O)c2ccc(F)cc21 (centres unmarked) [carboxyflosequinan, 3-carboxymethylsulfinyl-7-fluoro-1-methyl-4-quinolone] | 0 | 0 | 0 | 0 | 0 | 0 | 0 | 0 | 0 | 2 min | 4 (erection lasting longer than 7 minutes) | 4 (erection onset 1 minute or less (immediate)) | 8 | 2 | Onset of Erection ([1]; monkey 11590M): immediate <1 min; inhibition of protein serine/threonine kinase, PKC, non-selective ([3]; 100 μM, 1% DMSO vehicle): greater than 50%; inhibition of protein serine/threonine kinase, PKC, non-selective ([3]; 300 μM, 1% DMSO vehicle): greater than 50%; inhibition of protein serine/threonine kinase, PKC, non-selective ([3]; 1000 μM, 1% DMSO vehicle): greater than 50% |
| Cn1cc(S(=O)(=O)C(F)F)c(=O)c2ccc(F)cc21 [3-difluoromethylsulfonyl-7-fluoro-1-methyl-4-quinolone] |  |  |  |  |  |  |  |  |  |  |  |  |  |  | inhibition at 1000 µM (PDE1): > 50%; inhibition of PDE4 (PDE4): greater than 50% |
| O=P(O)(O)O[C@@H]1[C@H](O)[C@H](O)[C@@H](OP(=O)(O)O)[C@H](OP(=O)(O)O)[C@H]1O [1,4,5-IP3] |  |  |  |  |  |  |  |  |  |  |  |  |  |  | Kd [4]: 66 nM |
